The values below come from ChEMBL document CHEMBL1201862, “PubChem BioAssay data set” (2004).

Some test systems named below: BT-549; SF-295; IGROV-1; SR; NCI/ADR-RES; MOLT-4; TK-10; SNB-75; ACHN; SK-MEL-2; SN12C; SNB-19; UACC-62; DU-145; HCT-15; CAKI-1; OVCAR-3; NCI-H460; OVCAR-8.
Assay in all cases: NCI-60 cell line screen, 48 h

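How tested: cells in 96-well plates exposed to compound for 48 hours at five concentrations. GI50 is the concentration that inhibits growth by half.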 Activity calls are given as the source filed them. No stated cut-off is given here; in the data, active = GI50 up to about 1.1 µM and inactive = higher. Bounds are passed on as bounds.

With `O=[N+]([O-])c1ccc(Sc2c3ccccc3nc3ccccc23)nc1`, the GI50 is 14.1 µM (inactive) with BT-549; 26.1 µM (inactive) in the assay on SF-295; 16.7 µM (inactive) in the assay with IGROV-1; 2.47 µM (inactive) in the assay on SR; 19 µM (inactive) with NCI/ADR-RES; 2.75 µM (inactive) with MOLT-4. In addition, the GI50 in the assay with TK-10 was 2.96 µM (inactive); with SNB-75 it was 15.6 µM (inactive); in the assay on ACHN it was 7.87 µM (inactive); with SK-MEL-2, 20.4 µM (inactive); in the assay with SN12C, 13.2 µM (inactive); in the assay with SNB-19, 18.4 µM (inactive). For the same compound, the GI50 was 15.3 µM (inactive) with UACC-62; 6.93 µM (inactive) in the assay with DU-145; 4 µM in the assay with HCT-15; 4.88 µM (inactive) with CAKI-1; 5.74 µM (inactive) in the assay with OVCAR-3; 23.2 µM (inactive) with NCI-H460. In addition, the GI50 in the assay on OVCAR-8 was 22 µM (inactive).
Take `O=[N+]([O-])c1ccc(-n2nc3ccc4nonc4c3n2)cc1`: the GI50 in the assay with BT-549 was 22.7 µM (inactive); with SF-295 it was 28 µM (inactive); in the assay on IGROV-1, 27.9 µM (inactive); in the assay with SR it was > 100 µM (inactive); in the assay with NCI/ADR-RES it was 56.1 µM (inactive); in the assay on MOLT-4, > 100 µM (inactive). In addition, the GI50 in the assay with TK-10 is 18.4 µM (inactive); in the assay with SNB-75 it was 11.1 µM (inactive); in the assay on ACHN, 41.3 µM (inactive); in the assay on SK-MEL-2, 47.9 µM (inactive); with SN12C, > 100 µM (inactive); in the assay with SNB-19, 25.4 µM (inactive). Also, the GI50 in the assay with UACC-62 was 32.5 µM (inactive); with DU-145, 79.6 µM (inactive); with HCT-15, greater than 100 µM; with CAKI-1, 22.7 µM (inactive); with OVCAR-3 it was 71.4 µM (inactive); in the assay on NCI-H460, 37.3 µM (inactive).
Consider `COC(=O)[C@@H]1C[C@H]([Se]c2ccccc2)CN1C(=O)OCc1ccccc1`, for which the GI50 with BT-549 is 22.9 µM (inactive); in the assay with SF-295, 35.3 µM (inactive); with IGROV-1 it was 50.6 µM (inactive); in the assay on SR it was 26.1 µM (inactive); in the assay with NCI/ADR-RES, 39.2 µM (inactive); in the assay on MOLT-4 it was 22 µM (inactive). In addition, the GI50 in the assay on TK-10 was 53.5 µM (inactive); in the assay on SNB-75, 63.4 µM (inactive); in the assay on ACHN, 28.1 µM (inactive); with SK-MEL-2, 19.5 µM (inactive); with SN12C, 45.5 µM (inactive); with SNB-19, 62.7 µM (inactive). For the same compound, the GI50 is 15.1 µM (inactive) in the assay with UACC-62; 47.2 µM (inactive) in the assay with DU-145; 30.5 µM in the assay on HCT-15; 36 µM (inactive) in the assay on CAKI-1; 24 µM (inactive) in the assay on OVCAR-3; 24.8 µM (inactive) with NCI-H460. The GI50 with OVCAR-8 was 45.3 µM (inactive).
With `Cc1ccc(C(CCO)CCO)nc1`, the GI50 in the assay on BT-549, in the assay on SF-295, in the assay on SR, in the assay on NCI/ADR-RES, in the assay with MOLT-4 and in the assay with TK-10 was > 100 µM (inactive) in each case. The GI50 in the assay with SNB-75, in the assay with ACHN, in the assay on SK-MEL-2, in the assay with SN12C, with SNB-19 and with UACC-62 was > 100 µM (inactive) throughout. Also, the GI50 in the assay with DU-145 was > 100 µM (inactive); with HCT-15, greater than 100 µM; with CAKI-1 it was > 100 µM (inactive); in the assay with OVCAR-3, > 100 µM (inactive); in the assay with NCI-H460, > 100 µM (inactive); in the assay with OVCAR-8, > 100 µM (inactive).
In the case of `Cn1c2cc(Cl)ccc2c2ccc3c(c21)C(=O)C=CC3=O`, the GI50 in the assay with BT-549 was 25.6 µM (inactive); in the assay on SF-295, > 100 µM (inactive); in the assay with IGROV-1 it was 28.4 µM (inactive); in the assay with SR, 6.07 µM (inactive); in the assay on NCI/ADR-RES, > 52.4 µM (inactive); in the assay on MOLT-4, 2.75 µM (inactive). The GI50 is 26.9 µM (inactive) in the assay on TK-10; > 71 µM (inactive) in the assay with SNB-75; 16.8 µM (inactive) in the assay on ACHN; 33.3 µM (inactive) in the assay with SK-MEL-2; 14 µM (inactive) with SN12C; > 100 µM (inactive) in the assay on SNB-19. The GI50 in the assay on UACC-62 is 21.5 µM (inactive); in the assay with DU-145, > 57 µM (inactive); in the assay on HCT-15, 22.4 µM; in the assay on CAKI-1, 13.5 µM (inactive); with OVCAR-3, 11.7 µM (inactive); in the assay on NCI-H460, > 100 µM (inactive). For the same compound, the GI50 in the assay with OVCAR-8 is 28.3 µM (inactive).
Regarding `Nc1nc(Cl)cc(NCC2(CO)CC(Cc3ccccc3)C2)n1` (stereo not given), the GI50 in the assay on BT-549 is 20.4 µM (inactive); in the assay with SF-295 it was 11.3 µM (inactive); in the assay with IGROV-1, 48.4 µM (inactive); in the assay with SR, 9.27 µM (inactive); in the assay with NCI/ADR-RES, 9.73 µM (inactive); in the assay on MOLT-4 it was 16.5 µM (inactive). Moreover, the GI50 was 25.6 µM (inactive) with TK-10; 28.6 µM (inactive) with SNB-75; 32 µM (inactive) in the assay on ACHN; 22.3 µM (inactive) in the assay on SK-MEL-2; > 92.3 µM (inactive) with SN12C; 25.5 µM (inactive) in the assay on SNB-19. For the same compound, the GI50 is 27.5 µM (inactive) in the assay with UACC-62; > 53.5 µM (inactive) with DU-145; 9.55 µM in the assay with HCT-15; > 73.5 µM (inactive) in the assay with CAKI-1; 51.9 µM (inactive) in the assay on OVCAR-3; 22.5 µM (inactive) with NCI-H460. Further, the GI50 in the assay on OVCAR-8 was 42.2 µM (inactive).
`CC1(C)OC(=S)N(c2ccccc2)C12C=Cc1ccccc1O2` (stereo not given): the GI50 was 79.3 µM (inactive) in the assay with BT-549; 73.5 µM (inactive) with SF-295; 41.6 µM (inactive) in the assay with IGROV-1; 4.26 µM (inactive) in the assay on SR; 53.5 µM (inactive) in the assay on NCI/ADR-RES; 22.5 µM (inactive) in the assay with MOLT-4. Moreover, the GI50 was > 100 µM (inactive) with TK-10; 49.2 µM (inactive) in the assay on SNB-75; > 100 µM (inactive) in the assay on ACHN; > 100 µM (inactive) with SK-MEL-2; > 100 µM (inactive) with SN12C; > 100 µM (inactive) in the assay with SNB-19. In addition, the GI50 in the assay on UACC-62 was 75.5 µM (inactive); in the assay on DU-145 it was > 100 µM (inactive); in the assay on HCT-15 it was 58.9 µM; with CAKI-1 it was > 100 µM (inactive); in the assay with OVCAR-3, > 100 µM (inactive); with NCI-H460, 71.6 µM (inactive). In addition, the GI50 with OVCAR-8 was > 100 µM (inactive).
Turning to `CCOc1cc2c(OCc3ccccc3)cc3c4cc(OC)c(OC)cc4c[n+](C)c3c2cc1OC`, the GI50 with BT-549 is 0.789 µM (active); in the assay on SF-295, 8.57 µM (inactive); in the assay with SR, 0.631 µM (active); in the assay with NCI/ADR-RES, > 100 µM (inactive); in the assay on MOLT-4, 0.818 µM (active); with TK-10 it was 10.3 µM (inactive). For the same compound, the GI50 in the assay with SNB-75 was 0.442 µM (active); with ACHN it was 19.4 µM (inactive); with SK-MEL-2, 1.22 µM (inactive); with SN12C it was 0.471 µM (active); with SNB-19, 0.385 µM (active); in the assay on UACC-62, 1.27 µM (inactive). Moreover, the GI50 was 3.62 µM (inactive) in the assay with DU-145; 59.6 µM in the assay on HCT-15; 25.4 µM (inactive) in the assay on CAKI-1; 1.06 µM (active) with OVCAR-3; 4.97 µM (inactive) in the assay with NCI-H460; 2.19 µM (inactive) in the assay on OVCAR-8.
`CC(=O)OC[C@@]12C[C@H]3C(=O)C(C)(C)C[C@H]3[C@]1(C)[C@@H](OC(C)=O)[C@]1(O)[C@H]([C@@H](OC(=O)c3ccccc3)[C@@H](C)[C@H]1OC(C)=O)[C@H]2OC(C)=O`: the GI50 with BT-549 is > 20 µM (inactive); in the assay with SF-295, 15.3 µM (inactive); in the assay on IGROV-1 it was > 20 µM (inactive); in the assay with SR, > 20 µM (inactive); with NCI/ADR-RES, > 20 µM (inactive); in the assay on MOLT-4 it was 9.02 µM (inactive). The GI50 with TK-10, in the assay with SNB-75, in the assay on ACHN, in the assay with SK-MEL-2, in the assay with SN12C and in the assay with SNB-19 was > 20 µM (inactive) throughout. Besides, the GI50 was > 20 µM (inactive) with UACC-62; > 20 µM (inactive) in the assay with DU-145; greater than 20 µM in the assay on HCT-15; > 20 µM (inactive) in the assay with CAKI-1; > 20 µM (inactive) in the assay on OVCAR-3; 6.19 µM (inactive) in the assay with NCI-H460. Also, in the assay on OVCAR-8, the GI50 is > 20 µM (inactive).
Turning to `c1coc(C2=Nc3cccc4cccc(c34)N2)c1`, the GI50 with BT-549 was 44.5 µM (inactive); in the assay on SF-295 it was 34 µM (inactive); in the assay with IGROV-1, > 100 µM (inactive); with SR, > 100 µM (inactive); in the assay with NCI/ADR-RES it was 18.7 µM (inactive); in the assay on MOLT-4, > 100 µM (inactive). Further, the GI50 in the assay with TK-10 was > 100 µM (inactive); in the assay with SNB-75, 65.5 µM (inactive); in the assay with ACHN it was 22.1 µM (inactive); in the assay on SK-MEL-2 it was 29.3 µM (inactive); in the assay on SN12C, 28.4 µM (inactive); with SNB-19 it was > 100 µM (inactive). Also, the GI50 in the assay with UACC-62 was 35.5 µM (inactive); in the assay on DU-145, > 100 µM (inactive); in the assay on HCT-15, 26.5 µM; with CAKI-1, 35.4 µM (inactive); in the assay on OVCAR-3, 24.2 µM (inactive); with NCI-H460, 34.8 µM (inactive). For the same compound, the GI50 with OVCAR-8 is 39.3 µM (inactive).
With `O=C(CCn1ccnc1[N+](=O)[O-])NCCCn1ccnc1[N+](=O)[O-]`, the GI50 in the assay on BT-549, in the assay with SF-295, in the assay with IGROV-1, in the assay on SR, in the assay with NCI/ADR-RES and in the assay on MOLT-4 was > 100 µM (inactive) throughout. For the same compound, the GI50 in the assay with TK-10, with SNB-75, in the assay on ACHN, with SK-MEL-2, with SN12C and in the assay on UACC-62 was > 100 µM (inactive) each time. The GI50 in the assay with DU-145 is > 100 µM (inactive); in the assay with HCT-15, greater than 100 µM; in the assay on CAKI-1, > 100 µM (inactive); in the assay with OVCAR-3, > 100 µM (inactive); with NCI-H460, > 100 µM (inactive); in the assay on OVCAR-8 it was > 100 µM (inactive).
